According to PubChem BioAssay AID1963965 (Molecular Pharmacology Branch, DTP, NCI, 2024):
Each block holds one compound with its values, some of them ahead of it.

System: 996289-038-R-J1-PDC spheroid viability
Assay: Anticancer human tumor 996289-038-R-J1-PDC patient-derived colon adenocarcinoma cell line growth inhibition [PI3K]
Settings: spheroids with HUVEC and MSC; for IC50: curve of first compound; for viability, T/C: stronger effect = lower value
Method in brief: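 We assembled tumor spheroids that included a stromal compartment of HUVEC and MSCs, then exposed them to targeted agents alone and together with PI3K pathway inhibitors. Concentration series descended by half-log from clinically achievable Cmax levels. Viability served as the endpoint.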

[1] = second compound 0.0316 µM, first compound 0.0316 µM
[2] = second compound 0.0316 µM, first compound 0.1 µM
[3] = second compound 0.0316 µM, first compound 0.316 µM
[4] = second compound 0.0316 µM, first compound 1 µM
[5] = second compound 0.0316 µM, first compound 3.16 µM
[6] = second compound 0.0316 µM, first compound 10 µM
[7] = second compound 0.1 µM, first compound 0.0316 µM
[8] = second compound 0.1 µM, first compound 0.1 µM
[9] = second compound 0.1 µM, first compound 0.316 µM
[10] = second compound 0.1 µM, first compound 1 µM
[11] = second compound 0.1 µM, first compound 3.16 µM
[12] = second compound 0.1 µM, first compound 10 µM
[13] = second compound 0.316 µM, first compound 0.0316 µM
[14] = second compound 0.316 µM, first compound 0.1 µM
[15] = second compound 0.316 µM, first compound 0.316 µM
[16] = second compound 0.316 µM, first compound 1 µM
[17] = second compound 0.316 µM, first compound 3.16 µM
[18] = second compound 0.316 µM, first compound 10 µM
[19] = second compound 1 µM, first compound 0.0316 µM
[20] = second compound 1 µM, first compound 0.1 µM
[21] = second compound 1 µM, first compound 0.316 µM
[22] = second compound 1 µM, first compound 1 µM
[23] = second compound 1 µM, first compound 3.16 µM
[24] = second compound 1 µM, first compound 10 µM
[25] = second compound 3.16 µM, first compound 0.0316 µM
[26] = second compound 3.16 µM, first compound 0.1 µM
[27] = second compound 3.16 µM, first compound 0.316 µM
[28] = second compound 3.16 µM, first compound 1 µM
[29] = second compound 3.16 µM, first compound 3.16 µM
[30] = second compound 3.16 µM, first compound 10 µM
[31] = second compound 10 µM, first compound 0.0316 µM
[32] = second compound 10 µM, first compound 0.1 µM
[33] = second compound 10 µM, first compound 0.316 µM
[34] = second compound 10 µM, first compound 1 µM
[35] = second compound 10 µM, first compound 3.16 µM
[36] = second compound 10 µM, first compound 10 µM
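Also: spheroids exposed to compounds for seven days before viability read.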
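For viability, T/C in this document: luminescence used as a proxy for viable cell amount; percent viability relative to DMSO vehicle control as 100%.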

SMILES: C#Cc1c(F)ccc2cc(O)cc(-c3ncc4c(N5CC6CCC(C5)N6)nc(OCC56CCCN5CC(F)C6)nc4c3F)c12 (stereo not given) + CC(Nc1ncnc2nc[nH]c12)c1cc2cccc(Cl)c2c(=O)n1-c1ccccc1
IC50 (second compound 0.0316 µM): 1.16 µM | IC50 (second compound 0.1 µM): 1.51 µM | IC50 (second compound 0.316 µM): 1.43 µM | IC50 (second compound 1 µM): 1.04 µM | IC50 (second compound 3.16 µM): 0.681 µM | IC50 (second compound 10 µM): 0.372 µM | viability, T/C [1]: 101% | viability, T/C [2]: 96.6% | viability, T/C [3]: 69.7% | viability, T/C [4]: 52% | viability, T/C [5]: 45.6% | viability, T/C [6]: 37.2% | viability, T/C [7]: 90.4% | viability, T/C [8]: 76.2% | viability, T/C [9]: 60.6% | viability, T/C [10]: 55.3% | viability, T/C [11]: 46.8% | viability, T/C [12]: 33% | viability, T/C [13]: 95.9% | viability, T/C [14]: 81.8% | viability, T/C [15]: 71.2% | viability, T/C [16]: 54% | viability, T/C [17]: 40% | viability, T/C [18]: 33.7% | viability, T/C [19]: 99.3% | viability, T/C [20]: 79% | viability, T/C [21]: 59.8% | viability, T/C [22]: 57.5% | viability, T/C [23]: 35.6% | viability, T/C [24]: 32.8% | viability, T/C [25]: 92.3% | viability, T/C [26]: 81.6% | viability, T/C [27]: 63.2% | viability, T/C [28]: 42.6% | viability, T/C [29]: 34.1% | viability, T/C [30]: 27.6% | viability, T/C [31]: 78.9% | viability, T/C [32]: 74% | viability, T/C [33]: 47.8% | viability, T/C [34]: 37.9% | viability, T/C [35]: 29.5% | viability, T/C [36]: 20.9%

SMILES: C=CC(=O)N1CCN(c2nc(=O)n(-c3c(C)ccnc3C(C)C)c3nc(-c4c(O)cccc4F)c(F)cc23)C(C)C1 (stereo not given) + CC(Nc1ncnc2nc[nH]c12)c1cc2cccc(Cl)c2c(=O)n1-c1ccccc1
IC50 (second compound 0.0316 µM): > 10 µM | IC50 (second compound 0.1 µM): > 10 µM | IC50 (second compound 0.316 µM): > 10 µM | IC50 (second compound 1 µM): > 10 µM | IC50 (second compound 3.16 µM): > 10 µM | IC50 (second compound 10 µM): > 10 µM | viability, T/C [1]: 101% | viability, T/C [2]: 97.8% | viability, T/C [3]: 91.2% | viability, T/C [4]: 100% | viability, T/C [5]: 107% | viability, T/C [6]: 106% | viability, T/C [7]: 113% | viability, T/C [8]: 93.1% | viability, T/C [9]: 98.1% | viability, T/C [10]: 106% | viability, T/C [11]: 120% | viability, T/C [12]: 97% | viability, T/C [13]: 95.1% | viability, T/C [14]: 106% | viability, T/C [15]: 107% | viability, T/C [16]: 107% | viability, T/C [17]: 105% | viability, T/C [18]: 105% | viability, T/C [19]: 93.8% | viability, T/C [20]: 88.3% | viability, T/C [21]: 101% | viability, T/C [22]: 98.6% | viability, T/C [23]: 112% | viability, T/C [24]: 99.6% | viability, T/C [25]: 97.2% | viability, T/C [26]: 101% | viability, T/C [27]: 88.3% | viability, T/C [28]: 101% | viability, T/C [29]: 118% | viability, T/C [30]: 107% | viability, T/C [31]: 103% | viability, T/C [32]: 88.4% | viability, T/C [33]: 90.7% | viability, T/C [34]: 97.9% | viability, T/C [35]: 105% | viability, T/C [36]: 95.9%

SMILES: CC(Cn1ccc(-c2ccc(C#N)c(Cl)c2)n1)NC(=O)c1cc(C(C)O)[nH]n1 (stereo not given) + CC(Nc1ncnc2nc[nH]c12)c1cc2cccc(Cl)c2c(=O)n1-c1ccccc1
IC50 (second compound 0.0316 µM): > 10 µM | IC50 (second compound 0.1 µM): > 10 µM | IC50 (second compound 0.316 µM): > 10 µM | IC50 (second compound 1 µM): > 10 µM | IC50 (second compound 3.16 µM): > 10 µM | IC50 (second compound 10 µM): > 10 µM | viability, T/C [1]: 109% | viability, T/C [2]: 89.9% | viability, T/C [3]: 108% | viability, T/C [4]: 110% | viability, T/C [5]: 106% | viability, T/C [6]: 101% | viability, T/C [7]: 95.2% | viability, T/C [8]: 97.3% | viability, T/C [9]: 102% | viability, T/C [10]: 101% | viability, T/C [11]: 110% | viability, T/C [12]: 91.5% | viability, T/C [13]: 105% | viability, T/C [14]: 99.2% | viability, T/C [15]: 105% | viability, T/C [16]: 93.9% | viability, T/C [17]: 113% | viability, T/C [18]: 91.3% | viability, T/C [19]: 95.7% | viability, T/C [20]: 96.2% | viability, T/C [21]: 97.3% | viability, T/C [22]: 99.3% | viability, T/C [23]: 102% | viability, T/C [24]: 106% | viability, T/C [25]: 91.6% | viability, T/C [26]: 92.7% | viability, T/C [27]: 96.7% | viability, T/C [28]: 90.6% | viability, T/C [29]: 91.9% | viability, T/C [30]: 84.7% | viability, T/C [31]: 80.2% | viability, T/C [32]: 81.8% | viability, T/C [33]: 84.6% | viability, T/C [34]: 91.5% | viability, T/C [35]: 100% | viability, T/C [36]: 89.8%

The next lines start with results.

IC50 (second compound 0.0316 µM): > 10 µM | IC50 (second compound 0.1 µM): > 10 µM | IC50 (second compound 0.316 µM): > 10 µM | IC50 (second compound 1 µM): 9.38 µM | IC50 (second compound 3.16 µM): 7.97 µM | IC50 (second compound 10 µM): 5.1 µM
SMILES: Cn1ncc(Cl)c1-c1cc(C(=O)NC(CN)Cc2cccc(F)c2)sc1Cl (stereo not given) + CC(Nc1ncnc2nc[nH]c12)c1cc2cccc(Cl)c2c(=O)n1-c1ccccc1
viability, T/C [1]: 92.2% | viability, T/C [2]: 92.1% | viability, T/C [3]: 81.2% | viability, T/C [4]: 71.6% | viability, T/C [5]: 70.6% | viability, T/C [6]: 61.2% | viability, T/C [7]: 102% | viability, T/C [8]: 88.5% | viability, T/C [9]: 83.5% | viability, T/C [10]: 73.9% | viability, T/C [11]: 69.1% | viability, T/C [12]: 54.2% | viability, T/C [13]: 102% | viability, T/C [14]: 98.8% | viability, T/C [15]: 85.2% | viability, T/C [16]: 73.3% | viability, T/C [17]: 69.7% | viability, T/C [18]: 49.3% | viability, T/C [19]: 108% | viability, T/C [20]: 97.5% | viability, T/C [21]: 90.2% | viability, T/C [22]: 91.7% | viability, T/C [23]: 71.2% | viability, T/C [24]: 48.3% | viability, T/C [25]: 85.6% | viability, T/C [26]: 94% | viability, T/C [27]: 88.6% | viability, T/C [28]: 85% | viability, T/C [29]: 67.6% | viability, T/C [30]: 45.7% | viability, T/C [31]: 84.1% | viability, T/C [32]: 91.2% | viability, T/C [33]: 92% | viability, T/C [34]: 79% | viability, T/C [35]: 58.1% | viability, T/C [36]: 39.2%

IC50 (second compound 0.0316 µM): > 10 µM | IC50 (second compound 0.1 µM): > 10 µM | IC50 (second compound 0.316 µM): > 10 µM | IC50 (second compound 1 µM): 8.64 µM | IC50 (second compound 3.16 µM): > 10 µM | IC50 (second compound 10 µM): 7.53 µM
SMILES: Cn1nccc1Nc1nccc(-c2ccn(C(CO)c3ccc(Cl)c(F)c3)c(=O)c2)n1 (stereo not given) + CC(Nc1ncnc2nc[nH]c12)c1cc2cccc(Cl)c2c(=O)n1-c1ccccc1
viability, T/C [1]: 86.6% | viability, T/C [2]: 97.5% | viability, T/C [3]: 95.5% | viability, T/C [4]: 90.1% | viability, T/C [5]: 84.6% | viability, T/C [6]: 61.5% | viability, T/C [7]: 108% | viability, T/C [8]: 89.4% | viability, T/C [9]: 120% | viability, T/C [10]: 92.8% | viability, T/C [11]: 81.7% | viability, T/C [12]: 53.1% | viability, T/C [13]: 105% | viability, T/C [14]: 90.8% | viability, T/C [15]: 105% | viability, T/C [16]: 93.3% | viability, T/C [17]: 79.6% | viability, T/C [18]: 55.6% | viability, T/C [19]: 91.7% | viability, T/C [20]: 101% | viability, T/C [21]: 87.9% | viability, T/C [22]: 94.4% | viability, T/C [23]: 76.9% | viability, T/C [24]: 46.1% | viability, T/C [25]: 88.1% | viability, T/C [26]: 87.2% | viability, T/C [27]: 99.7% | viability, T/C [28]: 86.1% | viability, T/C [29]: 70.3% | viability, T/C [30]: 57.1% | viability, T/C [31]: 82.7% | viability, T/C [32]: 88.5% | viability, T/C [33]: 91.1% | viability, T/C [34]: 81.7% | viability, T/C [35]: 70.8% | viability, T/C [36]: 43.3%
